In patent publication US20040191115A1 (priority 2003, published 2004):
Like-named read-outs stand apart in the source and are kept apart here.

System: bacillus atrophaeus spores
Details: normal machine operation, cartons running
Description: Studies were conducted to determine the microbial eradication on mandrels 34 that were subjected to vaporized sterilant introduced at the heaters 40. […] The efficacy of the mandrel sterilization was studied for both the mandrel caps 35 and the mandrel side tubes 37 (see FIG. 3).
Each of the studies was further carried out using a testing media of bacillus atrophaeus spores for inoculating the mandrels. The mandrels were inoculated by spraying, using an aerating spray bottle having a solution with a concentration of about 7 log bacillus spores. The mandrels were then allowed to air dry. Controls were swabbed using cotton swabs to assure that the mandrels were properly inoculated. Following the machine operating period of the test, the mandrels were swabbed and the bacillus spores transferred to an agar media for incubation of the spores (at 32° C. for 48 hours) and subsequent recovery.

[1] = 16.76 percent H2O2, time 10 min
[2] = 16.76 percent H2O2, time 15 min
[3] = 16.76 percent H2O2, time 20 min
[4] = 16.76 percent H2O2, time 30 min

## OO [hydrogen peroxide]
3.12 percent H2O2, time 0 min
  Microbial Load (CFU/mandrel): 848000 CFU/mandrel
  Microbial Reduction (Log/mandrel): 0.00 Log/mandrel
3.12 percent H2O2, time 10 min
  Microbial Load (CFU/mandrel): 187000 CFU/mandrel
  Microbial Reduction (Log/mandrel): 0.66 Log/mandrel
3.12 percent H2O2, time 20 min
  Microbial Load (CFU/mandrel): 33400 CFU/mandrel
  Microbial Reduction (Log/mandrel): 1.40 Log/mandrel
3.12 percent H2O2, time 30 min
  Microbial Load (CFU/mandrel): 14100 CFU/mandrel
  Microbial Reduction (Log/mandrel): 1.78 Log/mandrel
3.12 percent H2O2, time 40 min
  Microbial Load (CFU/mandrel): 2180 CFU/mandrel
  Microbial Reduction (Log/mandrel): 2.59 Log/mandrel
5.77 percent H2O2, time 0 min
  Microbial Load (CFU/mandrel): 566000 CFU/mandrel
  Microbial Reduction (Log/mandrel): 0.00 Log/mandrel
5.77 percent H2O2, time 10 min
  Microbial Load (CFU/mandrel): 107000 CFU/mandrel
  Microbial Reduction (Log/mandrel): 0.72 Log/mandrel
5.77 percent H2O2, time 20 min
  Microbial Load (CFU/mandrel): 7300 CFU/mandrel
  Microbial Reduction (Log/mandrel): 1.89 Log/mandrel
5.77 percent H2O2, time 30 min
  Microbial Load (CFU/mandrel): 42 CFU/mandrel
  Microbial Reduction (Log/mandrel): 4.13 Log/mandrel
5.77 percent H2O2, time 40 min
  Microbial Load (CFU/mandrel): 4 CFU/mandrel
  Microbial Reduction (Log/mandrel): 5.15 Log/mandrel
9.55 percent H2O2, time 0 min
  Microbial Load (CFU/mandrel): 483000 CFU/mandrel
  Microbial Reduction (Log/mandrel): 0.00 Log/mandrel
9.55 percent H2O2, time 5 min
  Microbial Load (CFU/mandrel): 71000 CFU/mandrel
  Microbial Reduction (Log/mandrel): 0.83 Log/mandrel
9.55 percent H2O2, time 10 min
  Microbial Load (CFU/mandrel): 5750 CFU/mandrel
  Microbial Reduction (Log/mandrel): 1.92 Log/mandrel
9.55 percent H2O2, time 20 min
  Microbial Load (CFU/mandrel): 106 CFU/mandrel
  Microbial Reduction (Log/mandrel): 3.66 Log/mandrel
9.55 percent H2O2, time 30 min
  Microbial Load (CFU/mandrel): 8 CFU/mandrel
  Microbial Reduction (Log/mandrel): 4.78 Log/mandrel
16.76 percent H2O2, time 0 min
  Microbial Load (CFU/mandrel): 1020667 CFU/mandrel
  Microbial Reduction (Log/mandrel): 0.00 Log/mandrel
16.76 percent H2O2, time 5 min
  Microbial Load (CFU/mandrel): 52967 CFU/mandrel
  Microbial Reduction (Log/mandrel): 1.22 Log/mandrel
[1]
  Microbial Load (CFU/mandrel): 1273 CFU/mandrel
  Microbial Reduction (Log/mandrel): 2.81 Log/mandrel
[2]
  Microbial Load (CFU/mandrel): 30 CFU/mandrel
  Microbial Reduction (Log/mandrel): 4.53 Log/mandrel
[3]
  Microbial Load (CFU/mandrel): 8 CFU/mandrel
  Microbial Reduction (Log/mandrel): 5.20 Log/mandrel
[4]
  Microbial Load (CFU/mandrel): 4 CFU/mandrel
  Microbial Reduction (Log/mandrel): 5.21 Log/mandrel
35 percent H2O2, time 0 min
  Microbial Load (CFU/mandrel): 799000 CFU/mandrel
  Microbial Reduction (Log/mandrel): 0.00 Log/mandrel
35 percent H2O2, time 5 min
  Microbial Load (CFU/mandrel): 959 CFU/mandrel
  Microbial Reduction (Log/mandrel): 2.92 Log/mandrel
35 percent H2O2, time 10 min
  Microbial Load (CFU/mandrel): 1 CFU/mandrel
35 percent H2O2, time 15 min
  Microbial Load (CFU/mandrel): 1 CFU/mandrel
  Microbial Reduction (Log/mandrel): 5.90 Log/mandrel
35 percent H2O2, time 20 min
  Microbial Load (CFU/mandrel): 1 CFU/mandrel
  Microbial Reduction (Log/mandrel): 5.90 Log/mandrel
